Consider one compound from patent publication US6780398B1, “Aqueous nasal formulation” (Glaxo Smithkline Kabushiki Kaisha, priority 1999, dated 2004).

In the assay the test system is Ps. cepacia. As to the kind of experiment: Challenge test of BANS against Ps. cepacia (preservative effectiveness). It is filed as cell-based, Pseudomonas cepacia (now known as Burkhoderia cepacia). The following applies: phenylethylalcohol together with benzalkonium chloride in the formulation; FIG. 7. From the text:
4) Challenge Test of BANS Against Ps. Cepacia
Formulations corresponding to BANS and the same formulation containing only 0.02% (w/w) benzalkonium chloride as preservative (i.e. no phenylethyl alcohol) and the same formulation containing only 0.275% (v/w) phenylethylalcohol as preservative (i.e. no benzalkonium chloride) were challenged with an innoculum of Ps cepacia.

For `OCCc1ccccc1` [phenylethylalcohol, Phenylethyl alcohol], the “preservative properties by killing Pseudomonas cepacia” value is given as “synergistic effect with benzalkonium chloride”.
